Results on two compounds are retold here after patent publication US20230391768A2, “IMIDAZOPYRIDINE DERIVATIVES AND AZA-IMIDAZOPYRIDINE DERIVATIVES AS JANUS KINASE 2 INHIBITORS AND USES THEREOF” (Dana-Farber Cancer Institute, Inc., priority 2018, published 2023).

Usually IC50 stands for the concentration needed to halve the response being measured.

One assay concerns the target JAK2 (Homo sapiens (Human), UniProt O60674). As to the kind of experiment: JAK2 Z-Lyte biochemical assay. Conditions: commercial JAK2 Z-Lyte assay from Invitrogen. The method, then: The JAK2 Z-Lyte biochemical assay was performed according to manufacturer's instructions (Life Technologies).
A further assay addresses HIPK1 (Homo sapiens (Human), UniProt Q86Z02). As to the kind of experiment: KINOMEscan. Type of assay: binding. The conditions noted are these: read-out: percent of control. As for the experimental part:
(§1) In vitro profiling of Compound I-2 (1 μM) was performed using the DiscoveRx KINOMEscan® platform.

Assay [1] concerns the target ABL1(M351T)-phosphorylated (Homo sapiens (Human), UniProt P00519, M351T). The assay can be described thus: KINOMEscan. Type of assay: binding. Conditions: read-out: percent of control. As for the experimental part:
as §1

For another assay, the target named is TEC (Homo sapiens (Human), UniProt P42680). As to the kind of experiment: KINOMEscan. Type of assay: binding. The conditions noted are these: read-out: percent of control. As for the experimental part: as §1
The target of a further assay is CSNK1G2 (Homo sapiens (Human), UniProt P78368). As to the kind of experiment: KINOMEscan. Type of assay: binding. Conditions: read-out: percent of control. As for the experimental part: as §1
The next assay concerns the target BMX (Homo sapiens (Human), UniProt P51813). The assay can be described thus: KINOMEscan. The format is binding. Conditions: read-out: percent of control. As for the experimental part: as §1

Chain of HIPK1 (Q86Z02 whole entry): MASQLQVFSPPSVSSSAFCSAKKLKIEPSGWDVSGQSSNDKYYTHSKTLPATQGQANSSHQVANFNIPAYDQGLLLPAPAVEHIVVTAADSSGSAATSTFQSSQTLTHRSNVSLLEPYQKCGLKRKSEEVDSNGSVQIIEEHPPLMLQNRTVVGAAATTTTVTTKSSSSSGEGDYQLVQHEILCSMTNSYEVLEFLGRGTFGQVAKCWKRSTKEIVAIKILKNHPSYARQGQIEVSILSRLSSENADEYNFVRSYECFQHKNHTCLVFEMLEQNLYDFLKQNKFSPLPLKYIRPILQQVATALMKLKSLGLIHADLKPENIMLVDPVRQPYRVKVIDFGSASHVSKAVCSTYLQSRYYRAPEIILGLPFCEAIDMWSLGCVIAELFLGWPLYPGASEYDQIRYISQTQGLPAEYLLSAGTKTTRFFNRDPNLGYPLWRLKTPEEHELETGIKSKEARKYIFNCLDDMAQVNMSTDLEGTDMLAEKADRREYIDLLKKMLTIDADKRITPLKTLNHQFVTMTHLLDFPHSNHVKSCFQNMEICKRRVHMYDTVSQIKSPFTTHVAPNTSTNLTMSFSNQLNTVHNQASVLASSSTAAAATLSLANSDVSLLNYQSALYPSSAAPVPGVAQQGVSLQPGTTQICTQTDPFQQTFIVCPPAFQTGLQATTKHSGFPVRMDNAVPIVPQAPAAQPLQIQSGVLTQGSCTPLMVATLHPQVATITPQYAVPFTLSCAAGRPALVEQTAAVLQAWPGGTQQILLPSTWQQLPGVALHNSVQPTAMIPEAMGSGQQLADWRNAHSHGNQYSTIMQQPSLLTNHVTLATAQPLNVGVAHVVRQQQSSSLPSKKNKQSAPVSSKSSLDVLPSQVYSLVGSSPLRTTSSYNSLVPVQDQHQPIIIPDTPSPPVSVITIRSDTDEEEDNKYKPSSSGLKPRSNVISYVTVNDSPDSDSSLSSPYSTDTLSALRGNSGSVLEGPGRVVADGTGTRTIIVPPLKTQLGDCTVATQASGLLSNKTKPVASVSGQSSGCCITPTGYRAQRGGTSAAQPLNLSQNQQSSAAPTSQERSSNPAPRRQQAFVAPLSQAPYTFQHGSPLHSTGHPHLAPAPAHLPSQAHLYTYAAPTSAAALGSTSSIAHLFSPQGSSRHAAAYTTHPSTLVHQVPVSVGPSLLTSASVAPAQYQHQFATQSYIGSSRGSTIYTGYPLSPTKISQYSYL
Chain of JAK2 (O60674 whole entry): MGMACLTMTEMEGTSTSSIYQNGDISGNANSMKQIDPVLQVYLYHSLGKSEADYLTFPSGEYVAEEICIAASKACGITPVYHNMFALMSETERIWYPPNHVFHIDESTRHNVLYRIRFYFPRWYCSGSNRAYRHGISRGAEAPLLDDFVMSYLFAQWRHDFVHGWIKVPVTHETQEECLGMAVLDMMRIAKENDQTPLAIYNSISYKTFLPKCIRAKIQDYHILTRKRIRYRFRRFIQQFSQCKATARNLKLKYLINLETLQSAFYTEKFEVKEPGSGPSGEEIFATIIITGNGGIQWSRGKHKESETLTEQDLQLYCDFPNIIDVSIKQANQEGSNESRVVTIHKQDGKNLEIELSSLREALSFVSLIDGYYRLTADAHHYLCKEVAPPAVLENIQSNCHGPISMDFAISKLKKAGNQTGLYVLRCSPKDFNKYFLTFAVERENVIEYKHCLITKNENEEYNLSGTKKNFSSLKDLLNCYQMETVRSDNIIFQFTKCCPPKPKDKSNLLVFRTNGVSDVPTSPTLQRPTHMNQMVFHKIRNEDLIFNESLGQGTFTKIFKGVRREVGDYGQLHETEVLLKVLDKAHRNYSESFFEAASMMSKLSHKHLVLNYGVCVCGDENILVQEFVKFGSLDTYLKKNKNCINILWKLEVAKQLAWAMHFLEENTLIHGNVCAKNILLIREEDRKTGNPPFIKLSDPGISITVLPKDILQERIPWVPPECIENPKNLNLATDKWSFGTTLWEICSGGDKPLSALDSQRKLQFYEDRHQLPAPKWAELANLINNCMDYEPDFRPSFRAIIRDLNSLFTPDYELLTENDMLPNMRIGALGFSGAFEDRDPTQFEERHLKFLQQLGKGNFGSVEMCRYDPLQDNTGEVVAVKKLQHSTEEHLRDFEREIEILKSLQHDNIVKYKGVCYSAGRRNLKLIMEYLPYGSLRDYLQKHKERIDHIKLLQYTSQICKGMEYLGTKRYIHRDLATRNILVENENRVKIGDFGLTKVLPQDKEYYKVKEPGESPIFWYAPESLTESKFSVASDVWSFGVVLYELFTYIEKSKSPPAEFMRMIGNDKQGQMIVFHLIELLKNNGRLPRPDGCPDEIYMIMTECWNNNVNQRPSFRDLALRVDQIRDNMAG
Chain of BMX (P51813 whole entry): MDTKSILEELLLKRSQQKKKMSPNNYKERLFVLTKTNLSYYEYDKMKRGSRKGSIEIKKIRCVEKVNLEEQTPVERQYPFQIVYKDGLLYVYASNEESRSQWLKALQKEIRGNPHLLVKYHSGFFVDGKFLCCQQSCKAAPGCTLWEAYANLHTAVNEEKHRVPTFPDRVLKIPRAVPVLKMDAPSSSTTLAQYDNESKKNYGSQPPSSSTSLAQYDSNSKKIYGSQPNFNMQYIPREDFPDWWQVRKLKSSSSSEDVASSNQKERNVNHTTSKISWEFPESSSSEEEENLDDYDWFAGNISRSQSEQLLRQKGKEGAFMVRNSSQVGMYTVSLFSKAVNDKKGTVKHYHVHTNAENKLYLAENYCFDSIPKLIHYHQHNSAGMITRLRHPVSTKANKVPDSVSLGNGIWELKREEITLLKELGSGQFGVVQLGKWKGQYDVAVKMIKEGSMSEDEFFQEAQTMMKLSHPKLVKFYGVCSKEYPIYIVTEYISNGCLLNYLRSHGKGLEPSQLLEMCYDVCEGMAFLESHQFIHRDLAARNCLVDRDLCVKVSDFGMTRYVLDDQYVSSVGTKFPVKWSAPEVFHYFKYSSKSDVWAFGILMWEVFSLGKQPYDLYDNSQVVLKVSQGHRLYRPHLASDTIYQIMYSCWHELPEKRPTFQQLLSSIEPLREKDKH
Chain of CSNK1G2 (P78368 whole entry): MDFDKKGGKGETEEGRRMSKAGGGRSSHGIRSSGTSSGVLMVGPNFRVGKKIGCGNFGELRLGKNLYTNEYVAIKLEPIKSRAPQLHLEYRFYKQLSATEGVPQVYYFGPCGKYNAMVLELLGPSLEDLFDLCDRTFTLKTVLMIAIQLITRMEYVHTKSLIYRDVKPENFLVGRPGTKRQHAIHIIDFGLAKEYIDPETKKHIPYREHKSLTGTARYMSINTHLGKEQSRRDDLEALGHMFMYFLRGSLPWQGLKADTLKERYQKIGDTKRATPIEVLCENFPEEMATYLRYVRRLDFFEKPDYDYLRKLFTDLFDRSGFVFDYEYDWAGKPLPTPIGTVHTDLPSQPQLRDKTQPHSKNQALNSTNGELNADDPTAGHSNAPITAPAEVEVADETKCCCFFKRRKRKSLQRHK
Chain of TEC (P42680 whole entry): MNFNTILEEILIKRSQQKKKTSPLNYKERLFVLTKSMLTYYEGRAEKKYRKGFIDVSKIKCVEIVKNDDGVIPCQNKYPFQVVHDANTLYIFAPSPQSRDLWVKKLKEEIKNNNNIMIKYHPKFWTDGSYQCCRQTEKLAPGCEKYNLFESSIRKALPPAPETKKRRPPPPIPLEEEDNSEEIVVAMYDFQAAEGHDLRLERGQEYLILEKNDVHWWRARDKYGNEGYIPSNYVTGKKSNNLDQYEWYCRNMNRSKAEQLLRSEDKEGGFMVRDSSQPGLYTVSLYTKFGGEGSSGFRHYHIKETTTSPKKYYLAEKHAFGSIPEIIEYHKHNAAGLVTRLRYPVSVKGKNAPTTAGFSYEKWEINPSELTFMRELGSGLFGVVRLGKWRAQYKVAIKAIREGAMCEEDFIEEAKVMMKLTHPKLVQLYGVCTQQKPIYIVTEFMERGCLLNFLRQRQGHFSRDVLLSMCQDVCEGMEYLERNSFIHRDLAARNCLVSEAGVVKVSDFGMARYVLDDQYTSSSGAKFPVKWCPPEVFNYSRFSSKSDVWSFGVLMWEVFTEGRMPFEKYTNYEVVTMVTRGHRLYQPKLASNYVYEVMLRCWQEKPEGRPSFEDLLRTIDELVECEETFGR

On JAK2, `CCN1CCN(Cc2cc(NC(=O)c3ccc(C)c(-c4ccc5nc(NC(=O)C6CC6)cn5n4)c3)cc(C(F)(F)F)c2)CC1` [Compound I-2, 3-(2-(cyclopropanecarboxamido)imidazo[1,2-b]pyridazin-6-yl)-N-(3-((4-ethylpiperazin-1-yl)methyl)-5-(trifluoromethyl)phenyl)-4-methylbenzamide] returned a 50% inhibitory concentration (IC50) of 190 nM. The remaining binding at 1 µM on HIPK1 was determined as 62%; in assay [1], 0.8%; on TEC it was 100%; at CSNK1G2, 92%; at BMX it was 65%.

Take `CCN1CCN(Cc2cc(NC(=O)c3ccc(C)c(-c4ccc5nc(NC(=O)C6CC6)cn5c4)c3)cc(C(F)(F)F)c2)CC1` [Compound I-6, 3-(2-(cyclopropanecarboxamido)imidazo[1,2-a]pyridin-6-yl)-N-(3-((4-ethylpiperazin-1-yl)methyl)-5-(trifluoromethyl)phenyl)-4-methylbenzamide]: the IC50 against JAK2 worked out at 284 nM. Moreover, the remaining binding at 1 µM is 96% on HIPK1; 0.5% in assay [1]; 100% at TEC; 100% on CSNK1G2; 42% at BMX.
